Patent publication US20040175789A1, “G protein coupled receptors and dna sequences thereof” (priority 2003, published 2004)

Tested on: CHO-K1 (CHO-CRE) cells
Test: Selectivity check: Ca2+ signal (Flipr) in CHO-CRE CHO-K1 cells without receptor
Assay type: cell-based
Settings: not primed
Description: (§1) Twenty-four hours before the experiment, the cells are havested, counted and seeded in 384-well plates at 10000 cells per wells and put at 37° C./5% CO2. The day of the experiment, the injection plates containing the compounds are prepared as described in the following table:
(§2) The cells are loaded with 2 μM Fluo-4 in HBSS/Hepes buffer. After one hour incubation at 37° C./5% CO2, the cells are washed with HBSS/Hepes containing 2.5 mM probenecid (2 wash cycles+volume adjustment are performed). Plates that will be primed with ATP are adjusted to 20 μl final volume and plates that will directly receive the compounds are adjusted to 40 μl final volume. Four assay plates are primed with 20 μl ATP at 20 μM initial (10 μM final concentration) and are incubated at room temperature for 30 minutes. Compounds plates at 3 times the final concentration are then injected with the Flipr pipettor on both primed and not primed plates. The Flipr laser is setup on 0.6 watt, the exposure length at 0.4 sec. […] A 10 seconds baseline is recorded prior compounds injection. After the injection, the signal is recorded every second for one minute. Then, signal decay is measured for 20 additional seconds. Two statistics are exported: Fbasal and Fmax. For each well, a dF/F value is expressed with the following formula: (Fmax−Fbasal)/Fbasal is the basal fluorescence prior compound injection and Fmax is the peak value of the kinetic.
(§3) These compounds are also tested against wild type cells and other transfected cells in order to check the selectivity.

Compound | dF/F (Fmax−Fbasal)/Fbasal, CHO-CRE CHO-K1, np
CCCCCCCC/C=C\C/C=C\C=C\C(O)CCCC(=O)O (racemic) [Cpd 4, (±)5-HETrE] | −0.01
CC/C=C\C/C=C\C/C=C\C/C=C\C/C=C\CCCC(=O)O [Cpd 12, EICOSAPENTAENOIC ACID (20:5 n-3)] | −0.04
CCCCC/C=C\C[C@@H](O)/C=C/C=C/C=C/[C@@H](O)CCCC(=O)O (relative stereo) [Cpd 8, 5(S), 12(R)-DIHETE all trans] | −0.04
CCCCC/C=C\C=C\[C@@H](O)C/C=C\C/C=C\CCCC(=O)O [Cpd 3, 11(S)-HETE] | −0.03
CC/C=C\C/C=C\C/C=C\C/C=C\C=C\C(O)CCCC(=O)O (racemic) [Cpd 5, (±)5-HEPE] | −0.04
CCCCC/C=C\C/C=C\C/C=C\C/C=C\CCCC(=O)O [Cpd 13, ARACHIDONIC ACID (20:4 n-6)] | −0.05
CCCCC/C=C\C/C=C\C/C=C\C=C\[C@H](CCCC(=O)O)OO [Cpd 6, 5(S)-HPETE] | −0.01
CCCCC/C=C\C/C=C\C/C=C\C/C=C\CCCC(=O)OC(CO)CO [Cpd 14, 2-ARACHIDONOYLGLYCEROL] | −0.05
CCCCC/C=C\CC1OC1C/C=C\C/C=C\CCCC(=O)O (stereo not shown) [Cpd 9, 11,12-EPOXYEICOSATRIENOIC ACID] | −0.02
CCCCC/C=C\C/C=C\C/C=C\C/C=C\CCCC(=O)OC(CO)COC(=O)CCCCCCCCCCCCCCCCC (stereo not shown) [Cpd 11, 1-STEAROYL-2-ARACHIDONOYL-GLYCEROL] | −0.05
CCCCC/C=C\C/C=C\C/C=C\C=C\[C@@H](O)CCCC(=O)O [Cpd 1, 5(S)-HETE] | −0.02
CCCCC/C=C\C/C=C\C/C=C\C=C\C(=O)CCCC(=O)O [Cpd 10, 5-KETOEICOSATETRAENOIC ACID] | −0.05
CCCCC/C=C\C[C@@H]1O[C@H]1C(O)/C=C\C/C=C\CCCC(=O)O (stereo partly shown) [Cpd 7, HEPOXILIN B3] | −0.01
CCCCC/C=C\C/C=C\C/C=C\C=C\[C@@H](O)CCCC(=O)O (racemic) [Cpd 2, (±)5-HETE] | −0.05
OCCN(CCO)c1nc(N2CCCCC2)c2nc(N(CCO)CCO)nc(N3CCCCC3)c2n1 [Cpd 15, Dipyridamole] | −0.04

Target: T1, orphan receptor Singlet_413 (Homo sapiens, UniProt Q8TDS5)
T1 construct: expressed in transfected cells
Test: Ligand fishing: transient Ca2+ signal (Flipr384, Fluo-4) in CHO-K1-CRE cells stably transfected with Singlet_413
Assay type: cell-based
Settings: not primed
Description: as §1, §2

T1 sequence (Q8TDS5 whole entry): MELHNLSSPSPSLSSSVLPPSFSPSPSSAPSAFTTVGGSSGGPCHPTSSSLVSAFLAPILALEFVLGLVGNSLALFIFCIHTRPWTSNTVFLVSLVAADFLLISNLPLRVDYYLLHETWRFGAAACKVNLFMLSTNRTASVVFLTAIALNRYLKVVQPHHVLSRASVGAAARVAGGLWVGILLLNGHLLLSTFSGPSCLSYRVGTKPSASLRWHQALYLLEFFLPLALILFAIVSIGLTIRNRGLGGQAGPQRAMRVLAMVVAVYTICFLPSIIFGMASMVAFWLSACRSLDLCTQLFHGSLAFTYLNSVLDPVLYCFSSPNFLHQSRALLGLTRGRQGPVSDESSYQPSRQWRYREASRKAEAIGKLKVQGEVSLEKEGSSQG

Compound | dF/F (Fmax−Fbasal)/Fbasal, CHO-CRE Singlet_413, np
CCCCCCCC/C=C\C/C=C\C=C\C(O)CCCC(=O)O (racemic) [Cpd 4, (±)5-HETrE] | 0.03
CC/C=C\C/C=C\C/C=C\C/C=C\C/C=C\CCCC(=O)O [Cpd 12, EICOSAPENTAENOIC ACID (20:5 n-3)] | 0.05
CCCCC/C=C\C[C@@H](O)/C=C/C=C/C=C/[C@@H](O)CCCC(=O)O (relative stereo) [Cpd 8, 5(S), 12(R)-DIHETE all trans] | 0.01
CCCCC/C=C\C=C\[C@@H](O)C/C=C\C/C=C\CCCC(=O)O [Cpd 3, 11(S)-HETE] | 0.00
CC/C=C\C/C=C\C/C=C\C/C=C\C=C\C(O)CCCC(=O)O (racemic) [Cpd 5, (±)5-HEPE] | 0.03
CCCCC/C=C\C/C=C\C/C=C\C/C=C\CCCC(=O)O [Cpd 13, ARACHIDONIC ACID (20:4 n-6)] | 0.03
CCCCC/C=C\C/C=C\C/C=C\C=C\[C@H](CCCC(=O)O)OO [Cpd 6, 5(S)-HPETE] | 0.01
CCCCC/C=C\C/C=C\C/C=C\C/C=C\CCCC(=O)OC(CO)CO [Cpd 14, 2-ARACHIDONOYLGLYCEROL] | 0.02
CCCCC/C=C\CC1OC1C/C=C\C/C=C\CCCC(=O)O (stereo not shown) [Cpd 9, 11,12-EPOXYEICOSATRIENOIC ACID] | 0.02
CCCCC/C=C\C/C=C\C/C=C\C/C=C\CCCC(=O)OC(CO)COC(=O)CCCCCCCCCCCCCCCCC (stereo not shown) [Cpd 11, 1-STEAROYL-2-ARACHIDONOYL-GLYCEROL] | −0.01
CCCCC/C=C\C/C=C\C/C=C\C=C\[C@@H](O)CCCC(=O)O [Cpd 1, 5(S)-HETE] | 0.01
CCCCC/C=C\C/C=C\C/C=C\C=C\C(=O)CCCC(=O)O [Cpd 10, 5-KETOEICOSATETRAENOIC ACID] | 0.01
CCCCC/C=C\C[C@@H]1O[C@H]1C(O)/C=C\C/C=C\CCCC(=O)O (stereo partly shown) [Cpd 7, HEPOXILIN B3] | 0.02
CCCCC/C=C\C/C=C\C/C=C\C=C\[C@@H](O)CCCC(=O)O (racemic) [Cpd 2, (±)5-HETE] | 0.01
OCCN(CCO)c1nc(N2CCCCC2)c2nc(N(CCO)CCO)nc(N3CCCCC3)c2n1 [Cpd 15, Dipyridamole] | 0.11

Tested on: Contig 88:1
Test: Selectivity check: Ca2+ signal (Flipr) in CHO-CRE cells transfected with Contig 88:1
Assay type: cell-based, human
Settings: not primed
Description: as §1, §2, §3

Compound | dF/F (Fmax−Fbasal)/Fbasal, CHO-CRE Contig 88:1, np
CCCCCCCC/C=C\C/C=C\C=C\C(O)CCCC(=O)O (racemic) [Cpd 4, (±)5-HETrE] | 0.01
CC/C=C\C/C=C\C/C=C\C/C=C\C/C=C\CCCC(=O)O [Cpd 12, EICOSAPENTAENOIC ACID (20:5 n-3)] | 0.03
CCCCC/C=C\C[C@@H](O)/C=C/C=C/C=C/[C@@H](O)CCCC(=O)O (relative stereo) [Cpd 8, 5(S), 12(R)-DIHETE all trans] | 0.01
CCCCC/C=C\C=C\[C@@H](O)C/C=C\C/C=C\CCCC(=O)O [Cpd 3, 11(S)-HETE] | 0.00
CC/C=C\C/C=C\C/C=C\C/C=C\C=C\C(O)CCCC(=O)O (racemic) [Cpd 5, (±)5-HEPE] | 0.01
CCCCC/C=C\C/C=C\C/C=C\C/C=C\CCCC(=O)O [Cpd 13, ARACHIDONIC ACID (20:4 n-6)] | 0.02
CCCCC/C=C\C/C=C\C/C=C\C=C\[C@H](CCCC(=O)O)OO [Cpd 6, 5(S)-HPETE] | 0.00
CCCCC/C=C\C/C=C\C/C=C\C/C=C\CCCC(=O)OC(CO)CO [Cpd 14, 2-ARACHIDONOYLGLYCEROL] | 0.00
CCCCC/C=C\CC1OC1C/C=C\C/C=C\CCCC(=O)O (stereo not shown) [Cpd 9, 11,12-EPOXYEICOSATRIENOIC ACID] | 0.02
CCCCC/C=C\C/C=C\C/C=C\C/C=C\CCCC(=O)OC(CO)COC(=O)CCCCCCCCCCCCCCCCC (stereo not shown) [Cpd 11, 1-STEAROYL-2-ARACHIDONOYL-GLYCEROL] | −0.01
CCCCC/C=C\C/C=C\C/C=C\C=C\[C@@H](O)CCCC(=O)O [Cpd 1, 5(S)-HETE] | 0.00
CCCCC/C=C\C/C=C\C/C=C\C=C\C(=O)CCCC(=O)O [Cpd 10, 5-KETOEICOSATETRAENOIC ACID] | 0.00
CCCCC/C=C\C[C@@H]1O[C@H]1C(O)/C=C\C/C=C\CCCC(=O)O (stereo partly shown) [Cpd 7, HEPOXILIN B3] | 0.00
CCCCC/C=C\C/C=C\C/C=C\C=C\[C@@H](O)CCCC(=O)O (racemic) [Cpd 2, (±)5-HETE] | 0.01
OCCN(CCO)c1nc(N2CCCCC2)c2nc(N(CCO)CCO)nc(N3CCCCC3)c2n1 [Cpd 15, Dipyridamole] | 0.39

Tested on: CHO-K1-ATCC cells
Test: Selectivity check: Ca2+ signal (Flipr) in wild type CHO-K1-ATCC cells
Assay type: cell-based
Settings: non-transfected cells
Description: as §1, §2, §3

Compound | activity (Ca2+ signal) on the non-transfected cells
CCCCC/C=C\C/C=C\C/C=C\C=C\C(=O)CCCC(=O)O [Cpd 10, 5-KETOEICOSATETRAENOIC ACID] | not active

Same assay, conditions: not primed

Compound | dF/F (Fmax−Fbasal)/Fbasal, CHO-K1-ATCC, np
CCCCCCCC/C=C\C/C=C\C=C\C(O)CCCC(=O)O (racemic) [Cpd 4, (±)5-HETrE] | 0.01
CC/C=C\C/C=C\C/C=C\C/C=C\C/C=C\CCCC(=O)O [Cpd 12, EICOSAPENTAENOIC ACID (20:5 n-3)] | 0.02
CCCCC/C=C\C[C@@H](O)/C=C/C=C/C=C/[C@@H](O)CCCC(=O)O (relative stereo) [Cpd 8, 5(S), 12(R)-DIHETE all trans] | 0.02
CCCCC/C=C\C=C\[C@@H](O)C/C=C\C/C=C\CCCC(=O)O [Cpd 3, 11(S)-HETE] | −0.04
CC/C=C\C/C=C\C/C=C\C/C=C\C=C\C(O)CCCC(=O)O (racemic) [Cpd 5, (±)5-HEPE] | 0.03
CCCCC/C=C\C/C=C\C/C=C\C/C=C\CCCC(=O)O [Cpd 13, ARACHIDONIC ACID (20:4 n-6)] | 0.01
CCCCC/C=C\C/C=C\C/C=C\C=C\[C@H](CCCC(=O)O)OO [Cpd 6, 5(S)-HPETE] | 0.03
CCCCC/C=C\C/C=C\C/C=C\C/C=C\CCCC(=O)OC(CO)CO [Cpd 14, 2-ARACHIDONOYLGLYCEROL] | 0.00
CCCCC/C=C\CC1OC1C/C=C\C/C=C\CCCC(=O)O (stereo not shown) [Cpd 9, 11,12-EPOXYEICOSATRIENOIC ACID] | 0.00
CCCCC/C=C\C/C=C\C/C=C\C/C=C\CCCC(=O)OC(CO)COC(=O)CCCCCCCCCCCCCCCCC (stereo not shown) [Cpd 11, 1-STEAROYL-2-ARACHIDONOYL-GLYCEROL] | 0.01
CCCCC/C=C\C/C=C\C/C=C\C=C\[C@@H](O)CCCC(=O)O [Cpd 1, 5(S)-HETE] | 0.02
CCCCC/C=C\C/C=C\C/C=C\C=C\C(=O)CCCC(=O)O [Cpd 10, 5-KETOEICOSATETRAENOIC ACID] | 0.04
CCCCC/C=C\C[C@@H]1O[C@H]1C(O)/C=C\C/C=C\CCCC(=O)O (stereo partly shown) [Cpd 7, HEPOXILIN B3] | 0.01
CCCCC/C=C\C/C=C\C/C=C\C=C\[C@@H](O)CCCC(=O)O (racemic) [Cpd 2, (±)5-HETE] | 0.02
OCCN(CCO)c1nc(N2CCCCC2)c2nc(N(CCO)CCO)nc(N3CCCCC3)c2n1 [Cpd 15, Dipyridamole] | 0.38
